Reference: publication PMC10222323, “Novel Biotinylated Cu(II)-Phenanthroline Complexes: 2D and 3D Cytotoxic Activity and Mechanistic Insight” (Molecules, 2023)

Tests used:
[1] = system: genomic DNA of MDA-MB-231 cells; conditions: 3 h; for cells with lesioned genomic DNA (comets): 4 μM, fraction of treated cells
Protocol: As proof of the principle of their DNA-targeting ability, the alkaline single-cell gel electrophoresis (Comet assay, Figure 4) assay was performed to evaluate cellular genomic DNA lesions induced by tested complexes. […] MDA-MDB-231 cells were exposed for 3 h to 4 μM of tested compounds or 200 µM of the reference drug chlorambucil. Figure 4A depicts the relative percentage of comets and the number of cells forming a comet relative to the total number of detected cells per each condition in two randomly captured fields from two independent experiments. […] On the other hand, some reports highlighted protein disulphide isomerase (PDI) as an emerging target for copper complexes. On this basis, we also evaluated the ability of our complexes to act as PDI inhibitors. The enzyme was treated with 25 µM of complexes 2 and 4, and the ability to hamper its activity was assessed by a biochemical colourimetric method (Proteostat kit).
About 3 × 10^4 MDA-MB-231 cells were seeded in 25 cm^2 flasks in a growth medium. After overnight incubation, cells were treated for 3 h with […] of tested compounds and processed as previously described. Pictures were captured with a Zeiss LSM-800 confocal microscope (Zeiss, Oberkochen, Germany). All photos were analyzed by the Zen 2.3 system (Zeiss, Oberkochen, Germany).
Figure 4 Mechanistic studies. (A) Comet assay: MDA-MDB-231 cells were treated for 3 h with 4 μM of tested compounds 2 and 4 or 200 µM of the reference drug chlorambucil. The relative percentage of comets (number of cells forming a comet/total number of cells) was detected in two randomly captured fields from two independent experiments. (B) PDI inhibition induced by tested compounds was measured by Proteostat PDI assay kit. The PDI inhibitor Bacitracine (0.5 mM) was used as a positive control. Error bars indicate S.D. ** p < 0.01 compared with control.

noncancerous CHO cells = assay: Cytotoxicity against noncancerous CHO cells; type: cell-based; conditions: for S.I. (selectivity index): average IC50 toward normal cells divided by the average IC50 for the malignant cells; for IC50: noncancerous cells
Excerpt: In order to preliminarily assess the possible toxic effect on noncancerous cells, we also evaluated the cytotoxic potential of the newly developed Cu(II) complexes against noncancerous CHO cells (Table 3). For all tested complexes, calculated IC50 values were higher than those obtained (on average) against tumour cells, thus indicating for this class of metal complexes a slightly preferential cytotoxicity against cancer cells, as attested by the calculated selectivity index values (SI = the quotient of the average IC50 toward normal cells divided by the average IC50 for the malignant cells).
(§1) The growth inhibitory effect toward the tumour cell lines was evaluated by the MTT test as previously described.

DNA = assay: Ethidium bromide displacement assay; type: binding; conditions: EtBr displacement
Protocol: A number of research studies were performed on the elucidation of the mechanism of action of copper complexes in the past three decades. Despite several different molecular targets having been proposed for copper(II) complexes, DNA still represents one of the most substantiated when considering diamine ligands. On this basis, we thought it of interest to evaluate the ability of tested complexes to interact with DNA, both at molecular and cellular levels. An ethidium bromide (EB) displacement assay was used to understand if the complexes interact with the DNA at a molecular level. […] These values are very much in line with what was previously seen by us and also very close to the reported literature values of 2.60 × 10^7 M(bp^−1) and 3.04 × 10^7 M(bp^−1) for the bis complexes of [Cu(phen)2]^2+ and [Cu(DPQ)2]^2+ reported by Molphy et al.. […] It is largely possible that the presence of the 1,10-phenanthroline scaffold on compounds 3 and 4 is contributing to the increased displacement of the EtBr (probably by intercalation) and leading to a more noticeable decrease in the fluorescence.
EtBr displacement assays were performed in 10 mM phosphate buffer solution (pH 7.4) as described by Boger et al. The binding values were calculated using the % relative decrease of fluorescence at 50% and the equation below. (1) EEBEtBr/compound50%FI

[2] = biological target: T1, protein disulphide isomerase (PDI) (Homo sapiens, UniProt P07237); assay: PDI reductase activity (PROTEOSTAT PDI assay kit); type: biochemical; conditions: 25 µM of complex
T1 construct: purchased Enzo Life Sciences, Lausen, Switzerland
Protocol: MDA-MDB-231 cells were exposed for 3 h to 4 μM of tested compounds or 200 µM of the reference drug chlorambucil. […] On the other hand, some reports highlighted protein disulphide isomerase (PDI) as an emerging target for copper complexes.
The reductase activity of PDI was assayed by measuring the PDI-catalysed reduction of insulin in the presence of increasing concentrations of the tested compounds by using the PROTEOSTAT PDI assay kit (Enzo Life Sciences, Lausen, Switzerland). Experiments were performed according to the manufacturer’s instructions as previously described. IC50 values were calculated by the 4-PL model.
Figure 4 Mechanistic studies. (A) Comet assay: MDA-MDB-231 cells were treated for 3 h with 4 μM of tested compounds 2 and 4 or 200 µM of the reference drug chlorambucil. […] The PDI inhibitor Bacitracine (0.5 mM) was used as a positive control.

[3] = system: 2008 (ovarian) cancer cells; assay: MTT cytotoxicity test, 72 h, 2008; type: cell-based, human
Protocol: (§2) The in vitro anticancer potential of the newly developed complexes and of the ligands has been tested on six different cancer cell lines including PSN-1 (pancreatic), HCT-15 (colorectal with low sensitivity for cisplatin), 2008 (ovarian), A431 (cervical), MDA-MB-231 (breast), and U1285 (lung) cancer cells. For comparison purposes, cisplatin efficacy was assessed under the same experimental conditions.
Table 2 reported the IC50 values of the complexes against two types of ovarian cancer cells, one sensitive (2008) and one resistant to cisplatin (C13*). […] The resistance factor (R.F., the ratio among IC50 values obtained in resistant C13*cells and those calculated in the sensitive 2008 ones) calculated for all tested complexes resulted to be ≤2 (R.F. for cisplatin 11.1), strongly confirming the ability of the complexes to bypass cisplatin resistance.
(§3) Tested compounds were dissolved in DMSO and added to the cell-growth medium to a final solvent concentration of 0.5%, which is well reported to not have cytotoxic effects on cell viability. Cisplatin (Sigma Chemical Co., St. Louis, MO, USA) was dissolved in a physiologic solution (0.9% sodium chloride).
(§4) Human colon (HCT-15), pancreatic (PSN-1), and breast (MDA-MB-231) carcinoma-cell lines were obtained from the American Type Culture Collection (ATCC, Rockville, MD). Human cervical carcinoma (A431) cells were kindly provided by Prof. F. Zunino (Division of Experimental Oncology B, Istituto Nazionale dei Tumori, Milan). Human ovarian carcinoma (2008) cells and their cisplatin-resistant counterpart (C13*) were kindly provided by Prof. G. Marverti (Dipartimento di Scienze Biomediche, Università di Modena University, Italy). Cell lines were cultured in RPMI-1640 or DMEM medium (Euroclone) added with 10% fetal calf serum (Euroclone, Milan, Italy), antibiotics (50 units per mL penicillin, and 50 μg mL^−1 streptomycin), and 2 mM L-glutamine.
as §1

[4] = system: HCT-15 (colorectal with low sensitivity for cisplatin) cancer cells; assay: MTT cytotoxicity test, 72 h, HCT-15; type: cell-based, human; conditions: mean ± S.D.
Protocol: as §2, §3, §4, §1

[5] = Table 2, cisplatin-sensitive parental cells

T1 sequence (P07237 18-508): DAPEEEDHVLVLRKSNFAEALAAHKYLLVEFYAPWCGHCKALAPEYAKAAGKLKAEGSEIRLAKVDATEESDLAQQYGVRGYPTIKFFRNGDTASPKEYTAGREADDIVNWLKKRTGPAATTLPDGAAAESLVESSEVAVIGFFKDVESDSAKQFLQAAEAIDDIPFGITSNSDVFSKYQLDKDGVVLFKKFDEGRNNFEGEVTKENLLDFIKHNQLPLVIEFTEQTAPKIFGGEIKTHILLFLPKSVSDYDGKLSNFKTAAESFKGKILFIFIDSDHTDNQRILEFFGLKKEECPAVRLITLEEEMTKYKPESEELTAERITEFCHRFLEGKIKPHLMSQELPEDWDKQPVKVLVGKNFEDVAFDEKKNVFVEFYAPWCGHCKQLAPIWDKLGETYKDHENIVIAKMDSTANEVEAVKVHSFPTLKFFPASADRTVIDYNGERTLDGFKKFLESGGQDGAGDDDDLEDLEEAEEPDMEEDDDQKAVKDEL

Row | Compound | DNA damaging efficacy compared with chlorambucil ([1]; 4 μM compound vs 200 µM chlorambucil) | cells with lesioned genomic DNA (comets) [1] | S.I. (selectivity index) (noncancerous CHO cells) | IC50 (noncancerous CHO cells) [µM] | fluorescence quenching (in words) (DNA) | relative fluorescence decrease (DNA) | binding constant (DNA; 10 mM phosphate buffer pH 7.4, from 50% fluorescence decrease) | PDI inhibition [2] [%] | IC50 ([3]; Table 1, mean ± S.D.) [nM] | IC50 [3, 5] [nM] | IC50 [4] [nM]
1 | O=C(CCCC[C@@H]1SC[C@@H]2NC(=O)N[C@@H]21)NN=C1C(=O)c2ccc[n+]3c2-c2c1ccc[n+]2[Cu-2]31[n+]2cccc3ccc4ccc[n+]1c4c32.O=[N+]([O-])[O-].O=[N+]([O-])[O-] [Complex 4, [Cu(phen)(phendione-biotin)](NO3)2] | much higher than that induced by the reference compound chlorambucil | one third | 2.3 | 1.8 ± 0.7 | highest quenching values | greater than 50% | 1.28 × 10^7 M(bp^−1) | 15 | 600 ± 200 | 600 ± 200 | 400 ± 20
2 | O=C(CCCC[C@@H]1SC[C@@H]2NC(=O)N[C@@H]21)NN=C1C(=O)c2ccc[n+]3c2-c2c1ccc[n+]2[Cu-2]3([Cl])[Cl] [Complex 2, [Cu(phendione-biotin)Cl2]] | – | at least one fourth | 3.7 | 5.2 ± 0.3 | very small quenching | – | – | 45 | 1100 ± 300 | 1100 ± 300 | 400 ± 100
